For data set [1], the system named is female BALB/c mice. The experiment in a line: Example 4: tissue specimen of back skin including administration site. As to conditions: 7 days after the administration, intradermal. It counts as in vivo. The procedure: (§1) Five-week-old female BALB/c mice (supplied by Charles River) were divided into administration groups of 2 mice and an untreated group of 3 mice. 100 μL of each test sample described in Table 5 was intradermally administered to mice of corresponding groups on days 0, 7, and 14 of the administration. […] The collected blood was incubated at 25° C. for 30 minutes and then preserved overnight at 4° C. to assemble a blood clot, centrifugation was performed at 1,000 to 1,200 × g at 4° C. for 20 minutes, and a supernatant was collected. The blood IgG value of the collected serum was measured using an IgG ELISA kit. The serum was diluted 200,000 times with a dilution buffer attached to the kit. In addition, the back skin including the administration site of the third test sample was collected after collecting blood to prepare a tissue specimen.
The method for preparing the above-described test sample is as follows. […]

Data set [2] concerns female BALB/c mice. Briefly: Example 4: blood IgG value (IgG ELISA kit) after three intradermal administrations. It counts as in vivo. The note with it: in combination with any antigen protein (albumin, casein, lysozyme, papain); day 21. The procedure: as §1
The method for preparing the above-described test sample is as follows. That is, an antigen solution was prepared by dissolving an antigen protein in water, and the antigen solution and a 1.5 w/v % peptide composition (peptide compositions A to D described in Table 1) or PuraMatrix™ (which is manufactured by Corning Japan Ltd. and is a self-assembling peptide composition containing 1.0 w/v % of Ac-[…]-CONH2 (SEQ ID No: 18)) were mixed with each other so that the self-assembling peptide concentration became 0.75 w/v % and the antigen protein concentration became 0.25 mg/mL (=0.025 w/v %) to prepare a test sample. In addition, a sample obtained by mixing the above-described antigen solution with physiological saline so that the antigen protein concentration became 0.25 mg/mL was used as a control sample.

For data set [3] the following is noted: antigen protein; cited from earlier work.

As for Ac-RLDLRLALRLDLR-NH2 [SEQ ID No: 1], the “remaining of test sample inside the skin” value with female BALB/c mice [1] is on record as “the test sample remained inside the skin”. In addition, the “immunogenicity (blood IgG)” value in the data set with female BALB/c mice [2] is listed as “enhanced”.
On to Ac-RLDLRLSLRLDLR-NH2 [SEQ ID No: 15], for which the “remaining of test sample inside the skin” value in the data set on female BALB/c mice [1] is given as “the test sample remained inside the skin”. For the same molecule, the “immunogenicity (blood IgG)” value with female BALB/c mice [2] was “enhanced”.
As to “SEQ ID No: 16 (RLDLRLNLRLDLR; self-assembling peptide)”, the “immunogenicity (blood IgG)” value in the data set on female BALB/c mice [2] is “enhanced”.

B1: OVA: Ovalbumin antigen, Wako Pure Chemical Industries (protein, UniProt P01012 2-386, looked up)
Ovalbumin: GSIGAASMEFCFDVFKELKVHHANENIFYCPIAIMSALAMVYLGAKDSTRTQINKVVRFDKLPGFGDSIEAQCGTSVNVHSSLRDILNQITKPNDVYSFSLASRLYAEERYPILPEYLQCVKELYRGGLEPINFQTAADQARELINSWVESQTNGIIRNVLQPSSVDSQTAMVLVNAIVFKGLWEKAFKDEDTQAMPFRVTEQESKPVQMMYQIGLFRVASMASEKMKILELPFASGTMSMLVLLPDEVSGLEQLESIINFEKLTEWTSSNVMEERKIKVYLPRMKMEEKYNLTSVLMAMGITDVFSSSANLSGISSAESLKISQAVHAAHAEINEAGREVVGSAEAGVDAASVSEEFRADHPFLFCIKHIATNAVLFFGRCVSP
For the molecule B1, the Isoelectric point result in data set [3] is reported as “OVA: Ovalbumin (isoelectric point: 4.5, manufactured by Wako Pure Chemical Industries, Ltd., Cat. No”.
